Source: patent US20140309192A1, “MODULATORS OF THE G PROTEIN-COUPLED MAS RECEPTOR AND THE TREATMENT OF DISORDERS RELATED THERETO” (ARENA PHARMACEUTICALS, INC., priority 2011, published 2014)
“Also recorded” adds a separate entry of the source.

These molecules were tested against T1, human Mas receptor (Homo sapiens, UniProt P04201) (assay: HTRF IP1 assay, HEK293 cells expressing human Mas receptor). Details: HTRF IP1 assay, human Mas receptor (Table B.2); read-out: IC50.
T1 construct: expressed in transfected cells; host or cells: HEK293 (ATCC CRL-1573)
T1 sequence (P04201 1-325): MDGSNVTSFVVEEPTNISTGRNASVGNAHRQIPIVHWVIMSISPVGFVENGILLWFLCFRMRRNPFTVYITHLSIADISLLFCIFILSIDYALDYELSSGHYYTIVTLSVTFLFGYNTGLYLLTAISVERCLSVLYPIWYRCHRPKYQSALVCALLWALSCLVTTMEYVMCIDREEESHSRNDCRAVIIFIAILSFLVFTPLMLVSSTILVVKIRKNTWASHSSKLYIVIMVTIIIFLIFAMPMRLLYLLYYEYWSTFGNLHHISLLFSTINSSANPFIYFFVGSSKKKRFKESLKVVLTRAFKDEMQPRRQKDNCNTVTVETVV
Assay type: cell-based
Source text: (§1) Human and rat Mas receptors were either transiently or stably expressed in HEK293 cells. For transient transfections, human or rat Mas in pHM6 vector were transfected into HEK293 cells using Lipofectamine® (Invitrogen #18324-012). HEK293 cells transfected with empty pHM6 vector were used as a control. For generation of stable cell lines, cDNA expression plasmids encoding human or rat Mas genes and the neo^r gene were transfected into HEK293 cells (ATCC# CRL-1573) using Lipofectamine® (Invitrogen) according to the manufacturer's instructions. Stable receptor expressing pools were then generated over 3 weeks by standard techniques in the presence of 500 μg/mL Geneticin® (Gibco). Individual receptor stable pools were dilution cloned using standard techniques and clones were comparatively evaluated in inositol phosphate accumulation assays. Preferred clones were banked and cultured as needed. HEK293 cells were used as controls. The 384 well IP-One HTRF® Assay (Cisbio #62P1APEJ) was performed as described by the manufacturer's protocol. Cells were plated in at 100,000 cells per well in 15 μL DMEM (Gibco #11960) and incubated in a CO2 incubator at 37° C. for 2 h. Five μL of compounds diluted in 2× stimulation buffer plus 0.4% BSA (Sigma (#A3059) were added to each well and serial diluted IP1 standards (Cisbio #62IP1CDA) were also added to corresponding wells at this step. After the cells were incubated for 4 h in a CO2 incubator at 37° C., d2-labeled IP1 and cryptate-labeled anti-IP1 monoclonal antibody diluted in lysis buffer were added sequentially in 10 μL per well and the assay plates were kept in the dark at room temperature overnight. Ratiometric measurements of fluorescence emission at 665 nm and 620 nm were obtained using a Pherastar fluorometer (BMG Labtech). IP1 levels in each well were calculated according to the standard curves on each plate. IC50 values were obtained by fitting data to a nonlinear curve-fitting program (GraphPad Software, Inc., La Jolla Calif.).

Compound | IC50 [nM]
O=C(O)C[C@H]1CNCCN1Cc1ccc(C(=O)Nc2ccc(Cl)cc2N2CCN(CCC(F)(F)F)CC2)c(F)c1F [Compound 231, (S)-2-(1-(4-(4-Chloro-2-(4-(3,3,3-trifluoropropyl)piperazin-1-yl)phenylcarbamoyl)-2,3-difluorobenzyl)piperazin-2-yl)acetic acid] | 74.3
O=C(Nc1ccc(Cl)cc1N1CCN(CCC(F)(F)F)CC1)c1ccc(CN(CCO)CCO)c(F)c1F [Compound 178] | 34.4

The molecules below were run on isolated perfused rat hearts (assay: Ex vivo coronary flow, Langendorff perfused isolated rat hearts). Details: pretreatment 10 min: AR244555 5 μM or U-73122 0.5 μM.
Procedure: Coronary flow was measured in male Mas^−/− and Mas^+/+ mice, and in male Sprague-Dawley rats using Langendorff perfused isolated hearts. Freshly isolated hearts were placed on a Langendorff apparatus (Harvard Apparatus) and perfused at a constant pressure of 80 mmHg with a modified Krebs-Henseleit buffer solution (Sigma K3753) and aerated with 95% oxygen and 5% carbon dioxide, pH 7.35-7.4. The temperature was maintained at 37° C. by surrounding the heart with a water-heated glassware chamber. Coronary flow was measured using a flow measurement system (Harvard Apparatus) which included the transit time flow meter and a flow probe built into an adaptor block located at the perfusate inflow port. Data were recorded continuously using an ISOHEART data acquisition system (Harvard Apparatus). After a 20-min equilibration period, Mas compounds were added to the perfusion buffer reservoir at the desired concentration (agonist AR234960 at 1 μM, or inverse agonist AR244555 at 5 μM) and coronary flow was recorded for 10 min
To determine the role of the Mas-Gq-PLC pathway in regulating coronary flow, the Mas inverse agonist AR244555 (5 μM) or the PLC inhibitor U-73122 (0.5 μM) was added to the perfusion buffer for 10 min and then the agonist AR234960 (1 μM) was added to the perfusion buffer. Coronary flow was recorded for another 10 min Changes in coronary flow induced by AR234960 were calculated as percentage of the coronary flow at 10 min following AR234960 treatment, relative to the coronary flow measured immediately prior to addition of AR234960. This protocol allowed for measurement of agonist mediated vasoconstrictor activity, and accounted for changes in baseline coronary flow due to inverse agonist treatment alone.
To determine whether Mas agonist-induced changes in coronary flow were endothelium-dependent, the responses in Langendorff perfused hearts were measured after chemical removal of endothelium with sodium deoxycholate. After a 20-min equilibration period, sodium deoxycholate was added to the perfusion buffer at 0.2 mg/mL for 3 min and then washed out for 10 min Mas compounds were added and coronary flow was recorded for 10 min Adenosine (1 μM), a coronary vasodilator that targets the endothelium, was used as a control to verify effective removal of endothelium.

Compound | decrease in coronary flow induced by AR234960 (1 μM) after pretreatment
COc1ccc2c(c1)CC[C@@H]1[C@@H]2CC[C@]2(C)[C@@H](NCCCCCCN3C(=O)C=CC3=O)CC[C@@H]12 [Compound U-73122, 1-(6-((8R,9S,13S,14S,17S)-3-methoxy-13-methyl-7,8,9,11,12,13,14,15,16,17-decahydro-6H-cyclopenta[a]phenanthren-17-ylamino)hexyl)-1H-pyrrole-2,5-dione] | blocked the decrease; also recorded: prevented the decrease

These molecules were tested against T2, rat Mas receptor (Rattus norvegicus, UniProt P12526) (assay: HTRF IP1 assay, HEK293 cells expressing rat Mas receptor). Details: HTRF IP1 assay, rat Mas receptor (Table B.1); read-out: IC50.
T2 construct: expressed in transfected cells; host or cells: HEK293 (ATCC CRL-1573)
T2 sequence (P12526 1-324): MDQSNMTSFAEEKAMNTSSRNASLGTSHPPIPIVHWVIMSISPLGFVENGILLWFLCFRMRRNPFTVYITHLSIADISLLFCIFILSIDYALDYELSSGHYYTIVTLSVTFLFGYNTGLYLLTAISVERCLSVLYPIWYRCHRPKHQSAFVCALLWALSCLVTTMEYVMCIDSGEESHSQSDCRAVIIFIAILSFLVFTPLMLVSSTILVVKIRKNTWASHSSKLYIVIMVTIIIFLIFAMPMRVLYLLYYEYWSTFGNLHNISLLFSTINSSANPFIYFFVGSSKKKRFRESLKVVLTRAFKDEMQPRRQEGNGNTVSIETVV
Assay type: cell-based
Source text: as §1

Compound | IC50 [nM]
CCOC(=O)CN1Cc2ccc(C(=O)Nc3ccc(Cl)cc3N3CCN(CCC(F)(F)F)CC3)cc2C1 [Compound 27, Ethyl 2-(5-(4-chloro-2-(4-(3,3,3-trifluoropropyl)piperazin-1-yl)phenylcarbamoyl)isoindolin-2-yl)acetate] | 650
COC(=O)[C@H](CN)NCc1ccc(C(=O)Nc2ccc(Cl)cc2N2CCN(CCC(F)(F)F)CC2)c(F)c1 [Compound 198, (S)-Methyl 3-amino-2-(4-(4-chloro-2-(4-(3,3,3-trifluoropropyl)piperazin-1-yl)phenylcarbamoyl)-3-fluorobenzylamino)propanoate] | 173
CCN1CCCCC(NCc2ccc(C(=O)Nc3ccc(Cl)cc3N3CCN(CCC(F)(F)F)CC3)c(F)c2)C1=O (stereo not drawn) [Compound 117, N-(4-Chloro-2-(4-(3,3,3-trifluoropropyl)piperazin-1-yl)phenyl)-4-((1-ethyl-2-oxoazepan-3-ylamino)methyl)-2-fluorobenzamide] | 373
C[C@@H](O)CNCc1ccc(C(=O)Nc2ccc(Cl)cc2N2CCN(CCC(F)(F)F)CC2)c(F)c1 [Compound 130, (R)—N-(4-Chloro-2-(4-(3,3,3-trifluoropropyl)piperazin-1-yl)phenyl)-2-fluoro-4-((2-hydroxypropylamino)methyl)benzamide] | 252
O=C(Nc1ccc(Cl)cc1N1CCN(CCC(F)(F)F)CC1)c1ccc(CN(CCO)CCO)cc1F [Compound 144] | 108
CN(CC(=O)O)Cc1ccc(C(=O)Nc2ccc(Cl)cc2N2CCN(CCC(F)(F)F)CC2)c(F)c1F [Compound 210, 2-((4-(4-Chloro-2-(4-(3,3,3-trifluoropropyl)piperazin-1-yl)phenylcarbamoyl)-2,3-difluorobenzyl)(methyl)amino)acetic acid] | 68
O=C(O)C[C@H]1CNCCN1Cc1ccc(C(=O)Nc2ccc(Cl)cc2N2CCN(CCC(F)(F)F)CC2)c(F)c1F [Compound 231, (S)-2-(1-(4-(4-Chloro-2-(4-(3,3,3-trifluoropropyl)piperazin-1-yl)phenylcarbamoyl)-2,3-difluorobenzyl)piperazin-2-yl)acetic acid] | 50
O=C(Nc1ccc(Cl)cc1N1CCN(CCC(F)(F)F)CC1)c1ccc(CN2CCN3CCCC3C2)cc1F (stereo not drawn) [Compound 157, N-(4-Chloro-2-(4-(3,3,3-trifluoropropyl)piperazin-1-yl)phenyl)-2-fluoro-4-((hexahydropyrrolo[1,2-a]pyrazin-2(1H)-yl)methyl)benzamide] | 184
C[C@@H](CO)NC(=O)C1CNCCN1Cc1ccc(C(=O)Nc2ccc(Cl)cc2N2CCN(CCC(F)(F)F)CC2)c(F)c1F (stereo partly drawn) [Compound 242, 1-(4-(4-Chloro-2-(4-(3,3,3-trifluoropropyl)piperazin-1-yl)phenylcarbamoyl)-2,3-difluorobenzyl)-N—((S)-1-hydroxypropan-2-yl)piperazine-2-carboxamide] | 315
CC(C)(C)OC(=O)NCC[C@H](NCc1ccc(C(=O)Nc2ccc(Cl)cc2N2CCN(CCC(F)(F)F)CC2)c(F)c1F)C(=O)O [Compound 221, (S)-4-(tert-Butoxycarbonylamino)-2-(4-(4-chloro-2-(4-(3,3,3-trifluoropropyl)piperazin-1-yl)phenylcarbamoyl)-2,3-difluorobenzylamino)butanoic acid] | 157
C[C@H](NCc1ccc(C(=O)Nc2ccc(Cl)cc2N2CCN(CCC(F)(F)F)CC2)c(F)c1)C(N)=O [Compound 67, (S)-4-((1-Amino-1-oxopropan-2-ylamino)methyl)-N-(4-chloro-2-(4-(3,3,3-trifluoropropyl)piperazin-1-yl)phenyl)-2-fluorobenzamide] | 82
O=C(Nc1ccc(Cl)cc1N1CCN(CCC(F)(F)F)CC1)c1ccc(CNC(CO)(CO)CO)cc1F [Compound 103, N-(4-Chloro-2-(4-(3,3,3-trifluoropropyl)piperazin-1-yl)phenyl)-4-((1,3-dihydroxy-2-(hydroxymethyl)propan-2-ylamino)methyl)-2-fluorobenzamide] | 535
O=C1CN(Cc2ccc(C(=O)Nc3cc(Cl)c(Cl)cc3N3CCN(CCC(F)(F)F)CC3)c(F)c2F)CCN1 [Compound 188, N-(4,5-Dichloro-2-(4-(3,3,3-trifluoropropyl)piperazin-1-yl)phenyl)-2,3-difluoro-4-((3-oxopiperazin-1-yl)methyl)benzamide] | 29
O=C(Nc1ccc(Cl)cc1N1CCN(CCC(F)(F)F)CC1)c1ccc(CN(CCO)CCO)c(F)c1F [Compound 178] | 44.8
O=C(Nc1ccc(Cl)cc1N1CCN(CCC(F)(F)F)CC1)c1ccc(CN2CCS(=O)(=O)CC2)c(F)c1F [Compound 168, N-(4-Chloro-2-(4-(3,3,3-trifluoropropyl)piperazin-1-yl)phenyl)-2,3-difluoro-4-((1,1-dioxo-thiomorpholin-4-yl)methyl)benzamide] | 27.2
O=C(Nc1ccc(Cl)cc1N1CCN(CCC(F)(F)F)CC1)c1ccc(CN2CCC(CO)CC2)cc1F [Compound 54, N-(4-Chloro-2-(4-(3,3,3-trifluoropropyl)piperazin-1-yl)phenyl)-2-fluoro-4-((4-(hydroxymethyl)piperidin-1-yl)methyl)benzamide] | 497
O=C(Nc1ccc(Cl)cc1N1CCN(CCC(F)(F)F)CC1)c1ccc(N2CCCC2)cc1 [Compound 41, N-(4-Chloro-2-(4-(3,3,3-trifluoropropyl)piperazin-1-yl)phenyl)-4-(pyrrolidin-1-yl)benzamide] | 582
O=C(Nc1ccc(Cl)cc1N1CCN(CCC(F)(F)F)CC1)c1ccc(CNC2CCCCNC2=O)cc1F (stereo not drawn) [Compound 79, N-(4-Chloro-2-(4-(3,3,3-trifluoropropyl)piperazin-1-yl)phenyl)-2-fluoro-4-((2-oxoazepan-3-ylamino)methyl)benzamide] | 133
